Measured values from patent publication US20040175763A1, “Crohn's disease antibody-binding peptide and method of examining crohn's disease” (priority 2001, published 2004).

Tests used:
Crohn's disease antibody = experiment: Reaction inhibition test with one amino acid-substituted MAP peptides on CDP3 MAP plate (Example 6(2)); format: binding, human; details: inhibitor MAP peptide 100 μg/mL
Method: Referring to the amino acid sequence of CDP peptide, in order to determine the sequence necessary for the specific reactivity to Crohn's disease antibody, the following reaction inhibition test was performed using each of the one amino acid-substituted MAP peptides prepared as above as the reaction inhibitor.
More particularly, using the MAP plate prepared by immobilizing the MAP peptide of CDP3 (see Example 2(1)) as the antigen plate, the test was performed by 3 reaction steps. In the primary reaction, the Crohn's disease patient serum was diluted 100-fold with a sample diluent containing the one amino acid-substituted MAP peptide in a concentration of 100 μg/mL (0.1 M Tris-buffer containing 0.5 M sodium chloride, 1.5% casein, 2% normal goat serum and 0.2% Tween 20) and reacted at 25° C. for one hour. In the secondary reaction, 100 μL/well of the primary reaction mixture was added to the plate and reacted at 25° C. for one hour, after which the plate was washed 3 times. In the tertiary reaction, 100 μL/well of HRP-labeled anti-human IgG (Fc)-specific antibody diluted 5,000-fold in an enzyme-labeled antibody diluent (Tris buffer containing 0.14 M sodium chloride, 0.5% BAS, 5% normal goat serum and 0.05% Tween 20) was added to the plate, and reacted at 25° C. for 1 hour, followed by 3 rounds of washing. Detection was performed as in Example 2(1) to measure the reaction-inhibiting activity of the one amino acid-substituted MAP peptide.

[1] = system: Crohn's disease patient serum antibody; experiment: Phage ELISA of CD-binding peptide display phage clones with serum samples; set-up: species or system human; details: 20 Crohn's disease, 20 ulcerative colitis, 20 healthy volunteer serum samples
Method: Using the monoclonal CD-binding peptide display phage obtained as above, phage ELISA was carried out with the same healthy volunteer serum pool and Crohn's disease patient serum pool as used in the above biopanning (cf. (i)).
In the ELISA, an anti-phage antibody (Pharmacia) was immobilized on a 96-well microtiter plate in the first place. Specifically, this immobilization was carried out by adding an anti-phage antibody (Pharmacia) solution prepared in a 1 μg/ml concentration with (D)-PBS, to the plate, 100 μl per well. The plate was left sitting at 4° C. overnight and then washed, and after addition of 300 μl of blocking solution ((D)-PBS containing 1% BSA and 5% sorbitol), further left sitting at 4° C. overnight.
The primary reaction was carried out as follows. Thus, 10 μl of the phage solution in (ii) was added to 90 μl of phage ELISA buffer ((D)-PBS containing 1% BSA, 0.05% Tween 20 and 10% normal goat serum), the mixture was added to each well coated with said anti-phage antibody, and the reaction was conducted at 37° C. for 1 hour. After completion of the primary reaction, the plate was washed 4 times and the secondary reaction was carried out. The secondary reaction was performed by adding the mixture containing 1 μl of serum (healthy volunteer serum or Crohn's disease patient serum) and 100 μl of phage ELISA buffer, to each well, and allowing the reaction to proceed at 37° C. for 1 hour. After completion of the secondary reaction, the plate was washed 4 times and the tertiary reaction was carried out. The tertiary reaction was conducted by adding HRP (horseradish peroxidase)-labeled anti-human IgG (Fc)-specific antibody, diluted 40,000-fold in phage ELISA buffer (20 ng/ml) in advance, to the plate, 100 μl per well, and allowing the reaction to proceed at 37° C. for one hour. After completion of the tertiary reaction, the plate was washed and a color development reaction was carried out. The color development was conducted by adding TMB (3,3′,5,5′-tetramethylbenzidine) solution to the plate, allowing the reaction to proceed at room temperature for 10 minutes, and stopping the reaction with a stopper (1N sulfuric acid). The plate after reaction stopping was measured for absorbance (OD 450 nm) with a plate reader to evaluate the reactivity with the serum antibody.
For the 5 clones thus selected, the reactivity (ELISA) with the respective serum samples (Crohn's disease patient serum, ulcerative colitis patient serum, and healthy volunteer serum) was evaluated.

[2] = system: Crohn's disease antibody (serum IgG); experiment: ELISA using each branched multiple antigenic peptide (MAP peptide) as the antigen; format: binding, human; details: for Positive rate Ulcerative colitis patients: 20 ulcerative colitis patient sera; for Positive rate Ulcerative colitis patients / Positive rate Healthy volunteers: cut-off mean OD+5SD of 48 healthy volunteer sera; for reaction with ulcerative colitis patient sera or healthy volunteer sera: 20 ulcerative colitis, 48 healthy volunteer serum samples; for Positive rate Healthy volunteers: 48 healthy volunteer sera
Method: Using each MAP peptide (the MAP peptides of CDP-1, CDP-2, CDP-3, and CDP-4; see FIG. 2) obtained in Example 1 as the antigen peptide, the reactivity to each serum sample (Crohn's disease patient serum, ulcerative colitis patient serum, and healthy volunteer serum) was evaluated by ELISA.
In the first place, each MAP peptide was immobilized on a 96-well microtiter plate. Thus, this immobilization was carried out in accordance with the protocol which comprises dissolving each MAP peptide in bicarbonate buffer (50 mM, pH 9.6) at a concentration of 1 μg/ml to prepare a MAP solution, adding the solution to the antigen plate, 100 μl per well, then leaving the plate sitting at 4° C. overnight, washing it, adding 300 μl of casein solution ((D)-PBS containing 0.1% casein and 1% Triton X-100), and leaving the plate sitting again at 4° C. overnight.
(i) Using the MAP plates carrying the respective MAP peptides immobilized, the reactivity of each MAP peptide to 20 Crohn's disease patient serum samples, 20 ulcerative colitis patient serum samples and 48 healthy volunteer serum samples was verified by ELISA.
More particularly, a primary reaction was carried out by adding mixture containing 1 μl of the serum antibody and 100 μl of casein solution to each well of the MAP plate, and allowing the reaction to proceed at 37° C. for one hour. After completion of the primary reaction, the plate was washed 4 times and a 20,000-fold dilution of HRP-labeled anti-human IgG(Fc)-specific antibody in casein solution was added into the wells and incubated at 37° C. for one hour to carry out a secondary reaction. After completion of the secondary reaction, the plate was washed 4 times and a color development reaction was carried out. For detection, 100 μl of TMB solution was added to the plate and reacted at room temperature for 10 minutes, at the end of which time the reaction was stopped by adding 100 μl of TMB stop solution (1N sulfuric acid). The absorbance at OD 450 nm was measured with a plate reader to investigate the reactivity to each MAP plate for each serum. […] It can also be seen in FIG. 3 that the reactivity of each MAP peptide to Crohn's disease patient serum varied among different kinds of MAP peptides without consistency.
(ii) Then, using a large number of serum samples (96 Crohn's disease patient serum samples, 20 ulcerative colitis patient serum samples, and 48 healthy volunteer serum samples), the reactivity of the above MAP peptides (the MAP peptides of CDP-1, CDP-2, CDP-3, and CDP-4) was investigated by the same method as in (i) to evaluate the specificity of the respective peptides to Crohn's disease patient sera.

Substance: A A G E L R Q S D G Q Y Q M (AAGELRQSDGQYQM) [CDP3-2]
- reaction-inhibiting activity, Patient serum sample No. 2 (Crohn's disease antibody): +++ (+++: reaction-inhibiting activity = 70%)
- reaction-inhibiting activity, Patient serum sample No. 7 (Crohn's disease antibody): +++ (+++: reaction-inhibiting activity = 70%)
- reaction-inhibiting activity, Patient serum sample No. 8 (Crohn's disease antibody): +++ (+++: reaction-inhibiting activity = 70%)

Substance: A E A E L R Q S D G Q Y Q M (AEAELRQSDGQYQM) [CDP3-3]
- reaction-inhibiting activity, Patient serum sample No. 2 (Crohn's disease antibody): +++ (+++: reaction-inhibiting activity = 70%)
- reaction-inhibiting activity, Patient serum sample No. 7 (Crohn's disease antibody): +++ (+++: reaction-inhibiting activity = 70%)
- reaction-inhibiting activity, Patient serum sample No. 8 (Crohn's disease antibody): +++ (+++: reaction-inhibiting activity = 70%)

Substance: A E G A L R Q S D G Q Y Q M (AEGALRQSDGQYQM) [CDP3-4]
- reaction-inhibiting activity, Patient serum sample No. 2 (Crohn's disease antibody): +++ (+++: reaction-inhibiting activity = 70%)
- reaction-inhibiting activity, Patient serum sample No. 7 (Crohn's disease antibody): +++ (+++: reaction-inhibiting activity = 70%)
- reaction-inhibiting activity, Patient serum sample No. 8 (Crohn's disease antibody): +++ (+++: reaction-inhibiting activity = 70%)

Substance: A E G E A R Q S D G Q Y Q M (AEGEARQSDGQYQM) [CDP3-5]
- reaction-inhibiting activity, Patient serum sample No. 2 (Crohn's disease antibody): +++ (+++: reaction-inhibiting activity = 70%)
- reaction-inhibiting activity, Patient serum sample No. 7 (Crohn's disease antibody): +++ (+++: reaction-inhibiting activity = 70%)
- reaction-inhibiting activity, Patient serum sample No. 8 (Crohn's disease antibody): +++ (+++: reaction-inhibiting activity = 70%)

Substance: A E G E L A Q S D G Q Y Q M (AEGELAQSDGQYQM) [CDP3-6]
- reaction-inhibiting activity, Patient serum sample No. 2 (Crohn's disease antibody): +++ (+++: reaction-inhibiting activity = 70%)
- reaction-inhibiting activity, Patient serum sample No. 7 (Crohn's disease antibody): +++ (+++: reaction-inhibiting activity = 70%)
- reaction-inhibiting activity, Patient serum sample No. 8 (Crohn's disease antibody): +++ (+++: reaction-inhibiting activity = 70%)

Substance: A E G E L R A S D G Q Y Q M (AEGELRASDGQYQM) [CDP3-7]
- reaction-inhibiting activity, Patient serum sample No. 2 (Crohn's disease antibody): − (−: reaction-inhibiting activity = 30%)
- reaction-inhibiting activity, Patient serum sample No. 7 (Crohn's disease antibody): − (−: reaction-inhibiting activity = 30%)
- reaction-inhibiting activity, Patient serum sample No. 8 (Crohn's disease antibody): − (−: reaction-inhibiting activity = 30%)

Substance: A E G E L R Q A D G Q Y Q M (AEGELRQADGQYQM) [CDP3-8]
- reaction-inhibiting activity, Patient serum sample No. 2 (Crohn's disease antibody): +++ (+++: reaction-inhibiting activity = 70%)
- reaction-inhibiting activity, Patient serum sample No. 7 (Crohn's disease antibody): +++ (+++: reaction-inhibiting activity = 70%)
- reaction-inhibiting activity, Patient serum sample No. 8 (Crohn's disease antibody): +++ (+++: reaction-inhibiting activity = 70%)

Substance: A E G E L R Q S A G Q Y Q M (AEGELRQSAGQYQM) [CDP3-9]
- reaction-inhibiting activity, Patient serum sample No. 2 (Crohn's disease antibody): − (−: reaction-inhibiting activity = 30%)
- reaction-inhibiting activity, Patient serum sample No. 7 (Crohn's disease antibody): + (+: reaction-inhibiting activity between 30% and 50%)
- reaction-inhibiting activity, Patient serum sample No. 8 (Crohn's disease antibody): − (−: reaction-inhibiting activity = 30%)

Substance: A E G E L R Q S D A Q Y Q M (AEGELRQSDAQYQM) [CDP3-10]
- reaction-inhibiting activity, Patient serum sample No. 2 (Crohn's disease antibody): + (+: reaction-inhibiting activity between 30% and 50%)
- reaction-inhibiting activity, Patient serum sample No. 7 (Crohn's disease antibody): +++ (+++: reaction-inhibiting activity = 70%)
- reaction-inhibiting activity, Patient serum sample No. 8 (Crohn's disease antibody): +++ (+++: reaction-inhibiting activity = 70%)

Substance: A E G E L R Q S D G A Y Q M (AEGELRQSDGAYQM) [CDP3-11]
- reaction-inhibiting activity, Patient serum sample No. 2 (Crohn's disease antibody): − (−: reaction-inhibiting activity = 30%)
- reaction-inhibiting activity, Patient serum sample No. 7 (Crohn's disease antibody): + (+: reaction-inhibiting activity between 30% and 50%)
- reaction-inhibiting activity, Patient serum sample No. 8 (Crohn's disease antibody): − (−: reaction-inhibiting activity = 30%)

Substance: A E G E L R Q S D G Q A Q M (AEGELRQSDGQAQM) [CDP3-12]
- reaction-inhibiting activity, Patient serum sample No. 2 (Crohn's disease antibody): +++ (+++: reaction-inhibiting activity = 70%)
- reaction-inhibiting activity, Patient serum sample No. 7 (Crohn's disease antibody): +++ (+++: reaction-inhibiting activity = 70%)
- reaction-inhibiting activity, Patient serum sample No. 8 (Crohn's disease antibody): +++ (+++: reaction-inhibiting activity = 70%)

Substance: A E G E L R Q S D G Q Y A M (AEGELRQSDGQYAM) [CDP3-13]
- reaction-inhibiting activity, Patient serum sample No. 2 (Crohn's disease antibody): + (+: reaction-inhibiting activity between 30% and 50%)
- reaction-inhibiting activity, Patient serum sample No. 7 (Crohn's disease antibody): +++ (+++: reaction-inhibiting activity = 70%)
- reaction-inhibiting activity, Patient serum sample No. 8 (Crohn's disease antibody): ++ (++: reaction-inhibiting activity between 50% and 70%)

Substance: A E G E L R Q S D G Q Y Q A (AEGELRQSDGQYQA) [CDP3-14]
- reaction-inhibiting activity, Patient serum sample No. 2 (Crohn's disease antibody): +++ (+++: reaction-inhibiting activity = 70%)
- reaction-inhibiting activity, Patient serum sample No. 7 (Crohn's disease antibody): +++ (+++: reaction-inhibiting activity = 70%)
- reaction-inhibiting activity, Patient serum sample No. 8 (Crohn's disease antibody): +++ (+++: reaction-inhibiting activity = 70%)

Substance: AEGEL GLLAQQMDY ADPA [CD-1]
- specificity to Crohn's disease patient serum (phage ELISA reactivity) [1]: high specificity to Crohn's disease patient serum

Substance: AEGEL RLVGQQVMQ GDPA [CD-5]
- specificity to Crohn's disease patient serum (phage ELISA reactivity) [1]: high specificity to Crohn's disease patient serum

Substance: AEGELGGIYQDLVSGDPA [CDP-4]
- Positive rate Ulcerative colitis patients [2]: 5% (1/20)
- reaction with ulcerative colitis patient sera or healthy volunteer sera [2]: did not appreciably react
- Positive rate Healthy volunteers [2]: 4.2% (2/48)

Substance: AEGELGLLAQQMDYADPA [CDP-1]
- Positive rate Ulcerative colitis patients [2]: 0% (0/20)
- reaction with ulcerative colitis patient sera or healthy volunteer sera [2]: did not appreciably react
- Positive rate Healthy volunteers [2]: 4.2% (2/48)

Substance: AEGELRQSDGQYQMGDPA [CDP-3]
- Positive rate Ulcerative colitis patients [2]: 0% (0/20)
- reaction with ulcerative colitis patient sera or healthy volunteer sera [2]: did not appreciably react
- Positive rate Healthy volunteers [2]: 0% (0/48)

Substance: AEGELYRWLPPSSAGDPA [CDP-2]
- Positive rate Ulcerative colitis patients [2]: 5% (1/20)
- reaction with ulcerative colitis patient sera or healthy volunteer sera [2]: did not appreciably react
- Positive rate Healthy volunteers [2]: 2.1% (1/48)

Substance: S E G E L R Q S D G Q Y Q M (SEGELRQSDGQYQM) [CPP3-1]
- reaction-inhibiting activity, Patient serum sample No. 2 (Crohn's disease antibody): +++ (+++: reaction-inhibiting activity = 70%)
- reaction-inhibiting activity, Patient serum sample No. 7 (Crohn's disease antibody): +++ (+++: reaction-inhibiting activity = 70%)
- reaction-inhibiting activity, Patient serum sample No. 8 (Crohn's disease antibody): +++ (+++: reaction-inhibiting activity = 70%)
